Article PMC11033320, “Activation of p53 signaling and regression of breast and prostate carcinoma cells by spirooxindole-benzimidazole small molecules” (Frontiers in Pharmacology, 2024)

How the values were obtained:
SF-539 = assay: NCI anticancer screening, CNS Cancer SF-539; assay type: cell-based; details: Homo sapiens; SF-539, 10 μM; read-out: % Growth Inhibition (GI %)
Method in brief: (§1)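 NCI DTP, standard 60-line human tumor screen (organic compounds).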

SK-MEL-2 = assay: NCI anticancer screening, Melanoma SK-MEL-2; assay type: cell-based; details: Homo sapiens; SK-MEL-2, 10 μM; read-out: % Growth Inhibition (GI %)
Method in brief: as §1

NCI-H522 = assay: NCI anticancer screening, Non-Small Cell Lung Cancer NCI-H522; assay type: cell-based; details: Homo sapiens; NCI-H522, 10 μM; read-out: % Growth Inhibition (GI %)
Method in brief: as §1

SR = assay: NCI anticancer screening, Leukemia SR; assay type: cell-based; details: Homo sapiens, read-out: % Growth Inhibition (GI %)
Method in brief: as §1

CAKI-1 = assay: NCI anticancer screening, Renal Cancer CAKI-1; assay type: cell-based; details: Homo sapiens; CAKI-1, 10 μM; read-out: % Growth Inhibition (GI %)
Method in brief: as §1

HL-60(TB) = assay: NCI anticancer screening, Leukemia HL-60(TB); assay type: cell-based; details: Homo sapiens, read-out: % Growth Inhibition (GI %)
Method in brief: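 Values come from the NCI-60 human tumor cell screen as run by DTP under its standard organic-compound procedure.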

T-47D = assay: NCI anticancer screening, Breast Cancer T-47D; assay type: cell-based; details: Homo sapiens, T47D, read-out: % Growth Inhibition (GI %)
Method in brief: as §1

MOLT-4 = assay: NCI anticancer screening, Leukemia MOLT-4; assay type: cell-based; details: Homo sapiens; MOLT-4, 10 μM; read-out: % Growth Inhibition (GI %)
Method in brief: as §1

A549/ATCC = assay: NCI anticancer screening, Non-Small Cell Lung Cancer A549/ATCC; assay type: cell-based; details: Homo sapiens, read-out: % Growth Inhibition (GI %)
Method in brief: as §1

OVCAR-4 = assay: NCI anticancer screening, Ovarian Cancer OVCAR-4; assay type: cell-based; details: Homo sapiens; OVCAR-4, 10 μM; read-out: % Growth Inhibition (GI %)
Method in brief: as §1

HOP-62 = assay: NCI anticancer screening, Non-Small Cell Lung Cancer HOP-62; assay type: cell-based; details: Homo sapiens; HOP-62, 10 μM; read-out: % Growth Inhibition (GI %)
Method in brief: as §1

HOP-92 = assay: NCI anticancer screening, Non-Small Cell Lung Cancer HOP-92; assay type: cell-based; details: Homo sapiens; HOP-92, 10 μM; read-out: % Growth Inhibition (GI %)
Method in brief: as §1

SK-MEL-28 = assay: NCI anticancer screening, Melanoma SK-MEL-28; assay type: cell-based; details: Homo sapiens; SK-MEL-28, 10 μM; read-out: % Growth Inhibition (GI %)
Method in brief: as §1

MALME-3M = assay: NCI anticancer screening, Melanoma MALME-3M; assay type: cell-based; details: Homo sapiens, read-out: % Growth Inhibition (GI %)
Method in brief: as §1

CCRF-CEM = assay: NCI anticancer screening, Leukemia CCRF-CEM; assay type: cell-based; details: Homo sapiens, read-out: % Growth Inhibition (GI %)
Method in brief: as §1

HCT-116 = assay: NCI anticancer screening, Colon Cancer HCT-116; assay type: cell-based; details: Homo sapiens; HCT-116, 10 μM; read-out: % Growth Inhibition (GI %)
Method in brief: as §1

NCI-H322M = assay: NCI anticancer screening, Non-Small Cell Lung Cancer NCI-H322M; assay type: cell-based; details: Homo sapiens, read-out: % Growth Inhibition (GI %)
Method in brief: as §1

DU-145 = assay: NCI anticancer screening, DU-145; assay type: cell-based; details: Homo sapiens; DU-145, 10 μM; read-out: % Growth Inhibition (GI %)
Method in brief: as §1

SNB-75 = assay: NCI anticancer screening, CNS Cancer SNB-75; assay type: cell-based; details: Homo sapiens; SNB-75, 10 μM; read-out: % Growth Inhibition (GI %)
Method in brief: as §1

SW-620 = assay: NCI anticancer screening, Colon Cancer SW-620; assay type: cell-based; details: Homo sapiens; SW-620, 10 μM; read-out: % Growth Inhibition (GI %)
Method in brief: as §1

SN12C = assay: NCI anticancer screening, Renal Cancer SN12C; assay type: cell-based; details: Homo sapiens, read-out: % Growth Inhibition (GI %)
Method in brief: as §1

786-0 = assay: NCI anticancer screening, Renal Cancer 786-0; assay type: cell-based; details: Homo sapiens; 786-0, 10 μM; read-out: % Growth Inhibition (GI %)
Method in brief: as §1

LOX IMVI = assay: NCI anticancer screening, Melanoma LOX IMVI; assay type: cell-based; details: Homo sapiens, read-out: % Growth Inhibition (GI %)
Method in brief: as §1

RXF 393 = assay: NCI anticancer screening, Renal Cancer RXF 393; assay type: cell-based; details: Homo sapiens; RXF 393, 10 μM; read-out: % Growth Inhibition (GI %)
Method in brief: as §1

K-562 = assay: NCI anticancer screening, Leukemia K-562; assay type: cell-based; details: Homo sapiens, K562; K-562, 10 μM; read-out: % Growth Inhibition (GI %)
Method in brief: as §1

NCI/ADR-RES = assay: NCI anticancer screening, Ovarian Cancer NCI/ADR-RES; assay type: cell-based; details: Homo sapiens, read-out: % Growth Inhibition (GI %)
Method in brief: as §1

ACHN = assay: NCI anticancer screening, Renal Cancer ACHN; assay type: cell-based; details: Homo sapiens, read-out: % Growth Inhibition (GI %)
Method in brief: as §1

PC-3 cells = assay: MTT assay anticancer activity, PC-3; assay type: cell-based; details: Homo sapiens, PC-3, 5 µM, mean ± SEM, read-out: growth inhibition percentage of PC-3
Text: MTT method was done as described above.

TK-10 = assay: NCI anticancer screening, Renal Cancer TK-10; assay type: cell-based; details: Homo sapiens; TK-10, 10 μM; read-out: % Growth Inhibition (GI %)
Method in brief: as §1

SF-295 = assay: NCI anticancer screening, CNS Cancer SF-295; assay type: cell-based; details: Homo sapiens; SF-295, 10 μM; read-out: % Growth Inhibition (GI %)
Method in brief: as §1

OVCAR-8 = assay: NCI anticancer screening, Ovarian Cancer OVCAR-8; assay type: cell-based; details: Homo sapiens; OVCAR-8, 10 μM; read-out: % Growth Inhibition (GI %)
Method in brief: as §1

SK-MEL-5 = assay: NCI anticancer screening, Melanoma SK-MEL-5; assay type: cell-based; details: Homo sapiens; SK-MEL-5, 10 μM; read-out: % Growth Inhibition (GI %)
Method in brief: as §1

SNB-19 = assay: NCI anticancer screening, CNS Cancer SNB-19; assay type: cell-based; details: Homo sapiens; SNB-19, 10 μM; read-out: % Growth Inhibition (GI %)
Method in brief: as §1

EKVX = assay: NCI anticancer screening, Non-Small Cell Lung Cancer EKVX; assay type: cell-based; details: Homo sapiens, read-out: % Growth Inhibition (GI %)
Method in brief: as §1

HS 578T = assay: NCI anticancer screening, Breast Cancer HS 578T; assay type: cell-based; details: Homo sapiens, read-out: % Growth Inhibition (GI %)
Method in brief: as §1

HCC-2998 = assay: NCI anticancer screening, Colon Cancer HCC-2998; assay type: cell-based; details: Homo sapiens; HCC-2998, 10 μM; read-out: % Growth Inhibition (GI %)
Method in brief: as §1

U251 = assay: NCI anticancer screening, CNS Cancer U251; assay type: cell-based; details: Homo sapiens, U-251; U251, 10 μM; read-out: % Growth Inhibition (GI %)
Method in brief: as §1

With O=C(c1nc2ccccc2[nH]1)[C@H]1[C@H](c2ccc(C(F)(F)F)cc2)C2CSCN2[C@]12C(=O)Nc1ccccc12 (stereo partly drawn) [Compound 6c, (3S,6′R)-6'-(1H-Benzo [d]imidazole-2-carbonyl)-7'-(4-(trifluoromethyl)phenyl)-3′,6′,7′,7a′-tetrahydro-1′H-spiro [indoline-3.5′-pyrrolo [1,2-c]thiazol]-2-one] the inhibition at 10 µM (SF-539) was 91.6%, the inhibition at 10 µM (SK-MEL-2) was 108% and the inhibition at 10 µM (NCI-H522) was 87.7%. It also gave an inhibition at 10 µM (SR) of 85.6%, an inhibition at 10 µM (CAKI-1) of 78.6% and an inhibition at 10 µM (HL-60(TB)) of 108%. For the same compound, the inhibition at 10 µM (T-47D) was 69.7%, the inhibition at 10 µM (MOLT-4) was 82.7% and the inhibition at 10 µM (A549/ATCC) was 97.1%. For the same compound, the inhibition at 10 µM (OVCAR-4) was 80.9%, the inhibition at 10 µM (HOP-62) was 89.5% and the inhibition at 10 µM (HOP-92) was 109%. It also gave an inhibition at 10 µM (SK-MEL-28) of 97.7%, an inhibition at 10 µM (MALME-3M) of 94.9% and an inhibition at 10 µM (CCRF-CEM) of 95%. For the same compound, the inhibition at 10 µM (HCT-116) was 60%, the inhibition at 10 µM (NCI-H322M) was 91.1% and the inhibition at 10 µM (DU-145) was 97%. It also gave an inhibition at 10 µM (SNB-75) of 72.9%, an inhibition at 10 µM (SW-620) of 84.1% and an inhibition at 10 µM (SN12C) of 90.7%. For the same compound, the inhibition at 10 µM (786-0) was 99.4%, the inhibition at 10 µM (LOX IMVI) was 88.7% and the inhibition at 10 µM (RXF 393) was 90.1%. For the same compound, the inhibition at 10 µM (K-562) was 83.1%, the melting point was 185 to 187 °C and the inhibition at 10 µM (NCI/ADR-RES) was 86%. For the same compound, the inhibition at 10 µM (ACHN) was 89.6%, the inhibition at 5 µM (PC-3 cells) was 54.1 ± 1.35% and the inhibition at 10 µM (TK-10) was 120%. It also gave an IC50 (MDA-MB 231 cells) of 3.34 ± 0.21 µM, an inhibition (MDA-MB 231 cells; 5 µM) of 55.5 ± 2.5% and an inhibition at 10 µM (SF-295) of 95.3%. It also gave an inhibition at 10 µM (OVCAR-8) of 98.8%, an inhibition at 10 µM (SK-MEL-5) of 94.2% and an inhibition at 10 µM (SNB-19) of 84.9%. It also gave an inhibition at 10 µM (EKVX) of 87%, an inhibition at 10 µM (HS 578T) of 83.9% and an inhibition at 10 µM (HCC-2998) of 99.6%. It also gave an inhibition at 10 µM (U251) of 93.2%.
